Results as given in patent publication US9580444B2, “Polycyclic pyrazolinone derivative and herbicide comprising same as effective component thereof” (priority 2013, dated 2017).

Each compound was assayed on Chenopodium album (common lambsquarters) (assay: Test Example-4: herbicidal effect by a foliage treatment after weeds are generated under upland field conditions). Settings: 500 g a.i/ha, foliage treatment after emergence, about 14 days after treatment, score 0-5.
Format: in vivo
How it was run: (§1)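 Weed seeds were sown in upland soil, covered with about 0.5 cm soil and grown 14 days with watering. Diluted wettable powder or emulsifiable concentrate was then sprayed uniformly on foliage at a set dosage in 4000 L water/ha. Weed control and corn injury were scored 0–5 about 14 days later.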

Compound	Herbicidal effect Chenopodium album
N#CCOc1cc(-c2c(Cl)n3n(c2=O)CCCC3)c(F)cc1Cl [Example 1-171]	5 (Herbicidal effect/phytotoxicity was 90% or greater)
O=c1c(-c2ccc(Cl)cc2F)c(Cl)n2n1CCCC2 [Example 1-125]	5 (Herbicidal effect/phytotoxicity was 90% or greater)
C#CCOc1cc(-c2c(Cl)n3n(c2=O)CCCCC3)ccc1Cl [Example 1-63]	5 (Herbicidal effect/phytotoxicity was 90% or greater)
CC(C)COc1cc(-c2c(Cl)n3n(c2=O)CCCC3)c(F)cc1Cl [Example 1-156]	5 (Herbicidal effect/phytotoxicity was 90% or greater)
C#CCOc1cc(-c2c(F)n3n(c2=O)CCOCC3)c(Cl)cc1Cl [Example 1-364]	5 (Herbicidal effect/phytotoxicity was 90% or greater)

What follows are compounds tested on Abutilon theophrasti (velvetleaf) in the same assay as above. Settings: 500 g a.i/ha, foliage treatment after emergence, about 14 days after treatment, score 0-5.
Format: in vivo
How it was run: as §1

Compound	Herbicidal effect Abutilon theophrast
N#CCOc1cc(-c2c(Cl)n3n(c2=O)CCCC3)c(F)cc1Cl [Example 1-171]	5 (Herbicidal effect/phytotoxicity was 90% or greater)
O=c1c(-c2ccc(Cl)cc2F)c(Cl)n2n1CCCC2 [Example 1-125]	5 (Herbicidal effect/phytotoxicity was 90% or greater)
C#CCOc1cc(-c2c(Cl)n3n(c2=O)CCCCC3)ccc1Cl [Example 1-63]	5 (Herbicidal effect/phytotoxicity was 90% or greater)
CC(C)COc1cc(-c2c(Cl)n3n(c2=O)CCCC3)c(F)cc1Cl [Example 1-156]	5 (Herbicidal effect/phytotoxicity was 90% or greater)
C#CCOc1cc(-c2c(F)n3n(c2=O)CCOCC3)c(Cl)cc1Cl [Example 1-364]	5 (Herbicidal effect/phytotoxicity was 90% or greater)

What follows are compounds tested on Amaranthus viridis (green amaranthus) in the same assay as above. Settings: 500 g a.i/ha, foliage treatment after emergence, about 14 days after treatment, score 0-5.
Format: in vivo
How it was run: as §1

Compound	Herbicidal effect Amaranthus viridis
N#CCOc1cc(-c2c(Cl)n3n(c2=O)CCCC3)c(F)cc1Cl [Example 1-171]	5 (Herbicidal effect/phytotoxicity was 90% or greater)
O=c1c(-c2ccc(Cl)cc2F)c(Cl)n2n1CCCC2 [Example 1-125]	5 (Herbicidal effect/phytotoxicity was 90% or greater)
C#CCOc1cc(-c2c(Cl)n3n(c2=O)CCCCC3)ccc1Cl [Example 1-63]	5 (Herbicidal effect/phytotoxicity was 90% or greater)
CC(C)COc1cc(-c2c(Cl)n3n(c2=O)CCCC3)c(F)cc1Cl [Example 1-156]	5 (Herbicidal effect/phytotoxicity was 90% or greater)
C#CCOc1cc(-c2c(F)n3n(c2=O)CCOCC3)c(Cl)cc1Cl [Example 1-364]	5 (Herbicidal effect/phytotoxicity was 90% or greater)

Each compound was assayed on corn (assay: Test Example-4: phytotoxicity by a foliage treatment after weeds are generated under upland field conditions). Settings: 500 g a.i/ha, foliage treatment after emergence, about 14 days after treatment, score 0-5.
Format: in vivo
How it was run: as §1

Compound	Phytotoxicity Corn
N#CCOc1cc(-c2c(Cl)n3n(c2=O)CCCC3)c(F)cc1Cl [Example 1-171]	3 (Herbicidal effect/phytotoxicity was 50% to 70%)
O=c1c(-c2ccc(Cl)cc2F)c(Cl)n2n1CCCC2 [Example 1-125]	1 (Herbicidal effect/phytotoxicity was 10% to 30%)
C#CCOc1cc(-c2c(Cl)n3n(c2=O)CCCCC3)ccc1Cl [Example 1-63]	1 (Herbicidal effect/phytotoxicity was 10% to 30%)
CC(C)COc1cc(-c2c(Cl)n3n(c2=O)CCCC3)c(F)cc1Cl [Example 1-156]	2 (Herbicidal effect/phytotoxicity was 30% to 50%)
C#CCOc1cc(-c2c(F)n3n(c2=O)CCOCC3)c(Cl)cc1Cl [Example 1-364]	1 (Herbicidal effect/phytotoxicity was 10% to 30%)

The compounds below were run on Eleocharis acicularis (needle spikerush) (assay: Test Example-1: herbicidal effect by a treatment before weeds are generated under submerged conditions). Settings: 500 g a.i/ha, pre-emergence treatment, about 15 days after treatment, score 0-5.
Format: in vivo
How it was run: (§2)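 Paddy soil in cups was puddled, seeded with the weeds and kept flooded; compound as wettable powder or emulsifiable concentrate was diluted and applied into the water on the seeding day at a set dosage. Effect was scored about 15 days later on a 0–5 scale.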

Compound	Herbicidal effect Eleocharis acicularis
N#CCOc1cc(-c2c(Cl)n3n(c2=O)CCCC3)c(F)cc1Cl [Example 1-171]	5 (Herbicidal effect/phytotoxicity was 90% or greater)
O=c1c(-c2ccc(Cl)cc2F)c(Cl)n2n1CCCC2 [Example 1-125]	5 (Herbicidal effect/phytotoxicity was 90% or greater)
C#CCOc1cc(-c2c(Cl)n3n(c2=O)CCCCC3)ccc1Cl [Example 1-63]	5 (Herbicidal effect/phytotoxicity was 90% or greater)
CC(C)COc1cc(-c2c(Cl)n3n(c2=O)CCCC3)c(F)cc1Cl [Example 1-156]	5 (Herbicidal effect/phytotoxicity was 90% or greater)
C#CCOc1cc(-c2c(F)n3n(c2=O)CCOCC3)c(Cl)cc1Cl [Example 1-364]	5 (Herbicidal effect/phytotoxicity was 90% or greater)

What follows are compounds tested on Scirpus juncoides (bulrush) in the same assay as above. Settings: 500 g a.i/ha, pre-emergence treatment, about 15 days after treatment, score 0-5.
Format: in vivo
How it was run: as §2

Compound	Herbicidal effect Scirpus juncoides
N#CCOc1cc(-c2c(Cl)n3n(c2=O)CCCC3)c(F)cc1Cl [Example 1-171]	5 (Herbicidal effect/phytotoxicity was 90% or greater)
O=c1c(-c2ccc(Cl)cc2F)c(Cl)n2n1CCCC2 [Example 1-125]	5 (Herbicidal effect/phytotoxicity was 90% or greater)
C#CCOc1cc(-c2c(Cl)n3n(c2=O)CCCCC3)ccc1Cl [Example 1-63]	5 (Herbicidal effect/phytotoxicity was 90% or greater)
CC(C)COc1cc(-c2c(Cl)n3n(c2=O)CCCC3)c(F)cc1Cl [Example 1-156]	5 (Herbicidal effect/phytotoxicity was 90% or greater)
C#CCOc1cc(-c2c(F)n3n(c2=O)CCOCC3)c(Cl)cc1Cl [Example 1-364]	5 (Herbicidal effect/phytotoxicity was 90% or greater)

What follows are compounds tested on Cyperus difformis (smallflower umbrella plant) in the same assay as above. Settings: 500 g a.i/ha, pre-emergence treatment, about 15 days after treatment, score 0-5.
Format: in vivo
How it was run: as §2

Compound	Herbicidal effect Cyperus difformis
N#CCOc1cc(-c2c(Cl)n3n(c2=O)CCCC3)c(F)cc1Cl [Example 1-171]	5 (Herbicidal effect/phytotoxicity was 90% or greater)
O=c1c(-c2ccc(Cl)cc2F)c(Cl)n2n1CCCC2 [Example 1-125]	5 (Herbicidal effect/phytotoxicity was 90% or greater)
C#CCOc1cc(-c2c(Cl)n3n(c2=O)CCCCC3)ccc1Cl [Example 1-63]	5 (Herbicidal effect/phytotoxicity was 90% or greater)
CC(C)COc1cc(-c2c(Cl)n3n(c2=O)CCCC3)c(F)cc1Cl [Example 1-156]	5 (Herbicidal effect/phytotoxicity was 90% or greater)
C#CCOc1cc(-c2c(F)n3n(c2=O)CCOCC3)c(Cl)cc1Cl [Example 1-364]	5 (Herbicidal effect/phytotoxicity was 90% or greater)

The compounds below were run on other annual broad leaf weeds (Lindernia procumbens, Rotala indica, Elatine triandra) in the same assay as above. Settings: 500 g a.i/ha, pre-emergence treatment, about 15 days after treatment, score 0-5.
Format: in vivo
How it was run: as §2

Compound	Herbicidal effect Broadleaf weed
N#CCOc1cc(-c2c(Cl)n3n(c2=O)CCCC3)c(F)cc1Cl [Example 1-171]	5 (Herbicidal effect/phytotoxicity was 90% or greater)
O=c1c(-c2ccc(Cl)cc2F)c(Cl)n2n1CCCC2 [Example 1-125]	5 (Herbicidal effect/phytotoxicity was 90% or greater)
C#CCOc1cc(-c2c(Cl)n3n(c2=O)CCCCC3)ccc1Cl [Example 1-63]	5 (Herbicidal effect/phytotoxicity was 90% or greater)
CC(C)COc1cc(-c2c(Cl)n3n(c2=O)CCCC3)c(F)cc1Cl [Example 1-156]	5 (Herbicidal effect/phytotoxicity was 90% or greater)
C#CCOc1cc(-c2c(F)n3n(c2=O)CCOCC3)c(Cl)cc1Cl [Example 1-364]	5 (Herbicidal effect/phytotoxicity was 90% or greater)

The compounds below were run on Echinochloa oryzicola (barnyard grass) in the same assay as above. Settings: 500 g a.i/ha, pre-emergence treatment, about 15 days after treatment, score 0-5.
Format: in vivo
How it was run: as §2

Compound	Herbicidal effect Echinochloa oryzicola
N#CCOc1cc(-c2c(Cl)n3n(c2=O)CCCC3)c(F)cc1Cl [Example 1-171]	5 (Herbicidal effect/phytotoxicity was 90% or greater)
O=c1c(-c2ccc(Cl)cc2F)c(Cl)n2n1CCCC2 [Example 1-125]	5 (Herbicidal effect/phytotoxicity was 90% or greater)
C#CCOc1cc(-c2c(Cl)n3n(c2=O)CCCCC3)ccc1Cl [Example 1-63]	5 (Herbicidal effect/phytotoxicity was 90% or greater)
CC(C)COc1cc(-c2c(Cl)n3n(c2=O)CCCC3)c(F)cc1Cl [Example 1-156]	5 (Herbicidal effect/phytotoxicity was 90% or greater)
C#CCOc1cc(-c2c(F)n3n(c2=O)CCOCC3)c(Cl)cc1Cl [Example 1-364]	5 (Herbicidal effect/phytotoxicity was 90% or greater)

The compounds below were run on Monochoria vaginalis (monochoria) in the same assay as above. Settings: 500 g a.i/ha, pre-emergence treatment, about 15 days after treatment, score 0-5.
Format: in vivo
How it was run: as §2

Compound	Herbicidal effect Monochoria vaginalis
N#CCOc1cc(-c2c(Cl)n3n(c2=O)CCCC3)c(F)cc1Cl [Example 1-171]	5 (Herbicidal effect/phytotoxicity was 90% or greater)
O=c1c(-c2ccc(Cl)cc2F)c(Cl)n2n1CCCC2 [Example 1-125]	5 (Herbicidal effect/phytotoxicity was 90% or greater)
C#CCOc1cc(-c2c(Cl)n3n(c2=O)CCCCC3)ccc1Cl [Example 1-63]	5 (Herbicidal effect/phytotoxicity was 90% or greater)
CC(C)COc1cc(-c2c(Cl)n3n(c2=O)CCCC3)c(F)cc1Cl [Example 1-156]	5 (Herbicidal effect/phytotoxicity was 90% or greater)
C#CCOc1cc(-c2c(F)n3n(c2=O)CCOCC3)c(Cl)cc1Cl [Example 1-364]	5 (Herbicidal effect/phytotoxicity was 90% or greater)
